Data taken from patent US9682114B2, “Plant extracts of Ptaeroxylon obliquum nand compounds having antimicrobial and antihelminthic activity” (UNIVERSITY OF PRETORIA, priority 2013, dated 2017).
Converted amounts (≈) assume the structure as drawn. Where two headings read alike, the source gives them in different places.

Experiments:
[1] = test system: Candida albicans standard strain (ATCC 10231) and clinical isolates; experiment: Broth micro-dilution assay, minimal inhibitory concentration (MIC); assay type: cell-based
[2] = test system: Candida albicans; conditions: C. albicans; cited from earlier work
[3] = test system: Enterococcus feacalis; conditions: cited from earlier work
[4] = test system: S. aureus, Salmonella typhi, Vibrio cholera, Escherichia coli, Shigella spp.; conditions: cited from earlier work
[5] = test system: Sporothrix schenckii; conditions: cited from earlier work
[6] = test system: Microsporum canis; conditions: cited from earlier work
[7] = in vitro; conditions: LC50 (cytotoxicity)
From the text: The MTT assay was used to determine the cytotoxicity of dried acetone extracts of H. caffrum (leaves); P. obliquum (leaves); R. melanophloeos (leaves) and S. birrea (stem bark) reconstituted in dimethyl sulphoxide (DMSO) against Mouse fibroblast cells (obtained from the Department of Plant Science, Faculty of Natural and Agricultural Sciences, University of Pretoria, South Africa).
MTT (yellow) is reduced into a formazan (purple) by viable cells. The colour intensity of the formazan produced, which is directly proportional to the number of viable cells, is measured using a spectrophotometer (Mosmann, 1983; Shai, 2007).
Cells were maintained in minimal essential medium (MEM) (Highveld Biological, South Africa) supplemented with 0.1% gentamicin (Virbac) and 5% foetal calf serum (Adcock-lngram). […] Dried crude plant extracts (100 mg) were reconstituted in 1 ml of DMSO and serial 10-fold dilutions of each extract were prepared in growth medium. The growth medium on sub-confluent monolayer cells grown overnight in microtitre plates was removed and cells were exposed to 200 μl of the extracts at different concentrations and incubated again at 37° C. for 5 days. Viability of cells was determined using the tetrazolium-based colorimetric assay (MTT assay) described by Mossmann (1983). Before the addition of MTT, the extract-containing medium on the cells was replaced with fresh culture medium to exclude reduction of the tetrazolium compound by plant extracts. The assay is based on mitochondrial dehydrogenase activity which is assessed by the reductive cleavage of the tetrazolium salt MTT [3-(4.5-dimethylthiazolyl)2.5-diphenyltetrazolium bromide] due to the succinic dehydrogenase present in living cells to yield a purple formazan dye. The cells were incubated with 30 μl of 5 mg/ml MTT in phosphate-buffered saline (PBS) for four hours. Thereafter, medium was removed and cells washed with PBS. DMSO (50 μl) was added to the cells and absorbance was measured using a Versamax microplate reader at 570 nm. Berberine chloride (Sigma) was used as a positive control, wells containing only cells acted as the negative control and a solvent control was also included. The percentage cell viability following the addition of varying concentrations of the extracts in relation to controls was calculated. The LC50 values were calculated (using SoftMax Pro4.8 Software) as the concentration of plant extracts resulting in 50 percent reduction of absorbance compared to untreated cells. Tests were carried out in quadruplicate and each experiment was repeated three times.

[8] = test system: monkey kidney (Vero) cells; conditions: cited from earlier work
[9] = test system: Candida albicans standard strain (ATCC 10231) and clinical isolates; experiment: Minimal fungicidal concentration (MFC) assay; assay type: cell-based; conditions: for Subcidal concentration: concentration slightly below the MFC; for MFC: mean value
Experimental: Minimal Fungicidal Concentration Determination
The minimal fungicidal concentration (MFC) values were determined as the lowest concentration of the extract that inhibited 100 percent growth of C. albicans standard strain (ATCC 10231) and clinical isolates.
Minimal Fungicidal Concentration Assay
The assay was initiated by pouring fresh sterile water aliquots (100 μl) into the wells of a microtitre plate. […] 50 μl of a 0.2 mg/ml aqueous solution of INT (Sigma) was added to each well. These suspensions were re-incubated at 35° C. for 24 h.

[10] = test system: Candida albicans standard strain (ATCC 10231) and clinical isolates; experiment: Re-inoculation and re-incubation of MIC wells, cidal/static effects; assay type: cell-based; conditions: for Growth after re-inoculation and re-incubation: 35° C. for 24 h
[11] = test system: adhesion of C. albicans to human buccal epithelial cells; experiment: Adhesion assay of C. albicans to human buccal epithelial cells (HBEC); assay type: cell-based, Candida albicans / human; conditions: 1-h exposure
Experimental: Preparation of Yeast and Buccal Epithelial Cells
For preparation of yeast and buccal epithelial cells the methods of Taweechaisupapong et al., 2005 were used with some modification.
C. albicans standard strain (ATCC 10231) and clinical isolates were maintained on Sabouraud-dextrose agar and grown in the yeast phase in Sabouraud-dextrose broth for this study. The organisms were washed three times in normal saline (NSS) by centrifugation at 5000 rpm for 10 minutes and finally suspended in NSS to 4×10^7 cells/ml (MacFarlane standard 1).
Human buccal epithelial cells (HBEC) were collected from healthy individual subjects by gently scraping the cheek mucosa with a sterile wooden spatula. To minimize individual variations, HBEC from the twenty healthy individuals were pooled in 10 ml of sterile NSS (Sandin et al., 1987). The pooled HBEC suspension was washed three times in NSS by centrifugation at 5000 rpm for 10 minutes to eliminate debris and loosely attached micro-organisms. Washed epithelial cells were confirmed to have no attached yeast before the adherence test. The HBEC was then re-suspended in NSS to a concentration of 9×10^8 cells/ml (by haemocytometer) and used immediately for the adhesion assay. The cells were collected at the same time of day on each occasion to minimize any possible effect of diurnal variations of HBEC on yeast adherence.
Adhesion of C. albicans standard strain (ATCC 10231) and clinical isolates to HBEC was determined as follows: 0.2 ml of P. obliquum acetone leaf extract was serially two-fold diluted with normal saline (NSS) in tubes. Tubes containing 0.2 ml of amphotericin B and NSS served as positive and negative controls, respectively. 0.1 ml of HBEC and 0.1 ml of the yeast suspension prepared as described previously were added to each tube, mixed gently and incubated at 37° C. for 1 hour with gentle agitation. The suspension was then diluted in 1 ml of sterile NSS.
The cells were filtered through a 12 μm pore size polycarbonate filter (Millipore), and washed twice with 15 ml of sterile NSS to remove unattached fungi. Each filter was carefully removed with forceps and placed on a glass slide with the HBEC against the glass surface. After 30 s, the filter was gently removed; leaving the HBEC adhered to the glass slide. The slides were air-dried, fixed with methanol and stained with Gram's dye. The number of yeast cells adhering to 100 HBEC was determined by counting in a light microscopy (Nikon Trans microscope) at ×400 magnification and photographed with a Nixon digital camera DXM 1200 F.
The adhesion assay is a modification of a method previously described by Kimura and Pearsall (1978) and by Taweechaisupapong et al. (2005).
The numbers of fungi adhering per 100 human buccal epithelial cells were counted and the percentage reduction was determined as follows: crude plant extract concentration divided by the control (yeast+HBEC)×100 minus 100=% reduction.

[12] = Candida albicans, C. albicans ATCC 10231, mean value, read-out: MIC
[13] = C. albicans 1051604, Amphotericin B 0.6 mg/ml
[14] = C. albicans ATCC 10231, Amphotericin B 0.11 mg/ml
[15] = C. albicans M0824, Amphotericin B 0.6 mg/ml

## C=C(C)[C@@H]1CC[C@]2(C)CC[C@]3(C)[C@H](CC[C@@H]4[C@@]5(C)CC[C@H](O)C(C)(C)[C@@H]5CC[C@]43C)[C@@H]12 [Compound 1.1, Lupeol]
[1]; [12]
  MIC: 4 µg/mL (≈ 9.37 µM)
[2]
  MIC (Shai et al., 2008): 250 µg/mL (≈ 586 µM)
[3]
  MIC (Shai et al., 2008): 63 µg/mL (≈ 148 µM)
[4]
  MIC (Mathabe et al., 2008): > 200 µg/mL
[5]
  MIC (Shai et al., 2008): 12 µg/mL (≈ 28.1 µM)
[6]
  MIC (Shai et al., 2008): 16 µg/mL (≈ 37.5 µM)
[7]; mouse fibroblast cells, MTT, 5 days
  CC50 at 5 days: 0.00148 µg/mL (≈ 0.00347 µM)
[8]
  cytotoxic LC50 (Shai et al., 2008): 89.5 µg/mL

## C[C@@H]1[C@H](O)[C@@H](C)/C=C/C=C/C=C/C=C/C=C/C=C/C=C/[C@H](O[C@@H]2O[C@H](C)[C@@H](O)[C@H](N)[C@@H]2O)C[C@@H]2O[C@](O)(C[C@@H](O)C[C@@H](O)[C@H](O)CC[C@@H](O)C[C@@H](O)CC(=O)O[C@H]1C)C[C@H](O)[C@H]2C(=O)O [Amphotericin B, reference compound]
[1]; 12 h incubation, C. albicans 1051255
  MIC: 30 µg/mL (≈ 32.5 µM)
[1]; 12 h incubation, C. albicans 1051604
  MIC: 60 µg/mL (≈ 64.9 µM)
[1]; 12 h incubation, C. albicans 1051608
  MIC: 110 µg/mL (≈ 119 µM)
[1]; 12 h incubation, C. albicans ATCC 10231
  MIC: 110 µg/mL (≈ 119 µM)
[1]; 12 h incubation, C. albicans M0824
  MIC: 30 µg/mL (≈ 32.5 µM)
[1]; 12 h incubation, C. albicans M0825
  MIC: 30 µg/mL (≈ 32.5 µM)
[1]; 12 h incubation, C. albicans M0826
  MIC: 60 µg/mL (≈ 64.9 µM)
[1]; 24 h incubation, C. albicans 1051255
  MIC: 230 µg/mL (≈ 249 µM)
[1]; 24 h incubation, C. albicans 1051604
  MIC: 60 µg/mL (≈ 64.9 µM)
[1]; 24 h incubation, C. albicans 1051608
  MIC: 110 µg/mL (≈ 119 µM)
[1]; 24 h incubation, C. albicans ATCC 10231
  MIC: 110 µg/mL (≈ 119 µM)
[1]; 24 h incubation, C. albicans M0824
  MIC: 110 µg/mL (≈ 119 µM)
[1]; 24 h incubation, C. albicans M0825
  MIC: 60 µg/mL (≈ 64.9 µM)
[1]; 24 h incubation, C. albicans M0826
  MIC: 110 µg/mL (≈ 119 µM)
[1]; C. albicans ATCC 10231, mean value
  MIC: 110 µg/mL (≈ 119 µM)
[1]; C. albicans clinical isolate 1051255, mean value
  MIC: 30 µg/mL (≈ 32.5 µM)
[1]; C. albicans clinical isolate 1051604, mean value
  MIC: 60 µg/mL (≈ 64.9 µM)
[1]; C. albicans clinical isolate 1051608, mean value
  MIC: 110 µg/mL (≈ 119 µM)
[1]; C. albicans clinical isolate M0824, mean value
  MIC: 30 µg/mL (≈ 32.5 µM)
[1]; C. albicans clinical isolate M0825, mean value
  MIC: 30 µg/mL (≈ 32.5 µM)
[1]; C. albicans clinical isolate M0826, mean value
  MIC: 60 µg/mL (≈ 64.9 µM)
[9]; C. albicans 1051604
  Subcidal concentration: 0.06
[9]; C. albicans ATCC 10231
  Subcidal concentration: 0.11
  MFC: 110 µg/mL (≈ 119 µM)
[9]; C. albicans M0824
  Subcidal concentration: 0.06
[9]; C. albicans clinical isolate 1051255
  MFC: 230 µg/mL (≈ 249 µM)
[9]; C. albicans clinical isolate 1051604
  MFC: 60 µg/mL (≈ 64.9 µM)
[9]; C. albicans clinical isolate 1051608
  MFC: 110 µg/mL (≈ 119 µM)
[9]; C. albicans clinical isolate M0824
  MFC: 110 µg/mL (≈ 119 µM)
[9]; C. albicans clinical isolate M0825
  MFC: 60 µg/mL (≈ 64.9 µM)
[9]; C. albicans clinical isolate M0826
  MFC: 110 µg/mL (≈ 119 µM)
[10]; C. albicans 1051255
  Cidal/static effects: static
  Growth after re-inoculation and re-incubation: yes
[10]; C. albicans M0824
  Cidal/static effects: static
  Growth after re-inoculation and re-incubation: yes
[11]; [13]
  Number of yeast per 100 HBEC: 10
  Reduction in adherence %: 95.05%
[11]; [14]
  Number of yeast cells per 100 HBEC: 109
  Reduction in adherence %: 38.42%
[11]; [15]
  Number of yeast per 100 HBEC: 12
  Reduction in adherence %: 93.41%

## CC1(C)CC[C@]2(C)CC[C@]3(C)C(CCC4C5(C)CCC(O)C(C)(C)C5CC[C@]43C)C2C1 (stereo partly drawn) [Compound 1.2, β-amyrin]
[1]; [12]
  MIC: 4 µg/mL (≈ 9.33 µM)

## COc1ccc2cc3[n+](cc2c1OC)CCc1cc2c(cc1-3)OCO2 [Berberine, Berberine chloride, reference compound]
[7]; mouse
  CC50 at 5 days: 9.04 µg/mL
